Measured values published in patent US20260317370A1, “METHOD OF DEPROTECTING AT LEAST ONE D-AMINO ACID AND/OR D-AMINO ACID DERIVATIVE PROTECTED FUNCTIONAL GROUP” (Martin-Luther-Universität Halle-Wittenberg, priority 2023, published 2026).
Counter-ions that a name gives are not always drawn.

molecular target: T1, D-stereospecific hydrolytic enzyme, SEQ ID No. 4 (Bacillus cereus, UniProt P94288); test: additive influence on activity of D-stereospecific hydrolytic enzyme; format: biochemical; settings: role: inhibitor (additive); substrate Abz-AAfFAAK(DNP)-OH
T1 construct: initiator Met form is 4A; E. coli, purified by ion exchange and gel filtration
T1 sequence (P94288 entry or part of it): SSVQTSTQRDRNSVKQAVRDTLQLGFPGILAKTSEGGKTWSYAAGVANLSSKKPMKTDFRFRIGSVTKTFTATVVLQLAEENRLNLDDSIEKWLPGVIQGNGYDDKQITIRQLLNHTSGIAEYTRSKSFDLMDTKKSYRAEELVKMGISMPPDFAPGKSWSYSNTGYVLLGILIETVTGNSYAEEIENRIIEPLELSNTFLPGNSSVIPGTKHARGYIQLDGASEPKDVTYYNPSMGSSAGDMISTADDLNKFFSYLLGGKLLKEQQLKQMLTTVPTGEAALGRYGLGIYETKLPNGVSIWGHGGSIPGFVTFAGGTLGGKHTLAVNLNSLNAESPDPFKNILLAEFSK
Protocol: (§1) In further experiments, the hydrolysis reaction using D-stereospecific hydrolytic enzymes with SEQ ID No. 4, No. 6, No. 7, No. 8, No. 9 was carried out with internally quenched fluorogenic substrates (IQFS) (Abz-AAX/xaaFAAK(DNP)-OH) (Abz=2-aminobenzoic acid, DNP=2,4-dinitrophenol). By cleavage of the IQFS, a fluorescence signal is released and can be monitored by continuous fluorescence measurement (0.1 M NaPi, pH 8.0, 1% DMSO (v/v), 5-1000 nM enzyme, excitation wavelength 320 nm emission wavelength 420 nm, reaction volume 100 μl, 96-well micro titer plate, time scale 2 h). The respective model reaction is shown below (Formula 5). In Formula 5 DHy represents the respective D-stereospecific hydrolytic enzyme.
(§2) In addition, experiments were performed to investigate the effect of adding different additives in different concentrations based on the reaction mixture on the activity of D-stereospecific hydrolytic enzymes. The concentration of the respective additive was varied between 0 to 2.5 M. As additives, urea, guanidinium hydrochloride, NaCl and ß-mercaptoethanol (ß-ME) were used. The additives were added to the reaction mixture including the D-stereospecific hydrolytic enzyme and the peptide Abz-AAfFAAK(DNP)-OH. As D-stereospecific hydrolytic enzymes the D-stereospecific hydrolytic enzymes with SEQ ID No. 4, No. 6, No. 7, No. 8 and No. 9 were used.
(§3) The relative activity, in this case, is calculated by dividing the activity when adding an additive with a different concentration by the maximum activity of the respective D-stereospecific enzyme.
(§4) In Table 11, the concentration of additive (M) based on the reaction mixture at which 50% (*) or 10% (**) of the relative specific activity of the respective enzyme is still present is indicated.

Point of comparison: `NC(N)=O` [urea], “concentration of additive at which 10% of the relative specific activity is still present” value 1.25 M. Against it:
- N=C(N)N [GdmCl, guanidinium hydrochloride] — within 1.5-fold, 1.00 M

With `OCCS` [β-ME, ß-mercaptoethanol] the “concentration of additive at which 10% of the relative specific activity is still present” value was under 0.25 M.

molecular target: T2, D-stereospecific hydrolytic enzyme, SEQ ID No. 9 (Bacillus thuringiensis, UniProt A0A1W6WP87); test: as above; format: biochemical; settings: role: inhibitor (additive); substrate Abz-AAfFAAK(DNP)-OH
T2 construct: E. coli, purified
T2 sequence (A0A1W6WP87 38-388): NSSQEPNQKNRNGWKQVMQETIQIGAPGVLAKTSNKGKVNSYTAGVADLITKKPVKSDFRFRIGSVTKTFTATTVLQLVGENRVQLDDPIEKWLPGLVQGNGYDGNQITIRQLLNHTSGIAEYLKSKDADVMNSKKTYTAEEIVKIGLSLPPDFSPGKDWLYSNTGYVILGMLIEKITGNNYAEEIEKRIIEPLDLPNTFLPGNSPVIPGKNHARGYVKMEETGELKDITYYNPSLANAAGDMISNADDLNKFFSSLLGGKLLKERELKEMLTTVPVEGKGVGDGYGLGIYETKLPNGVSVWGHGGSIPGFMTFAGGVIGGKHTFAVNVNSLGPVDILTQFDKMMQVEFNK
Protocol: as §1, §2, §3, §4

Point of comparison: `OCCS` [β-ME, ß-mercaptoethanol], “concentration of additive at which 10% of the relative specific activity is still present” value 0.50 M. Against it:
- N=C(N)N [GdmCl, guanidinium hydrochloride] — 2.5-fold higher, 1.25 M
- NC(N)=O [urea] — 4.5-fold higher, 2.25 M

molecular target: T3, D-stereospecific hydrolytic enzyme, SEQ ID No. 6 (Bacillus thuringiensis, UniProt A0A1W6WPG2); test: as above; format: biochemical; settings: role: inhibitor (additive); substrate Abz-AAfFAAK(DNP)-OH
T3 construct: E. coli, purified; crystallized, P21
T3 sequence (A0A1W6WPG2 40-385): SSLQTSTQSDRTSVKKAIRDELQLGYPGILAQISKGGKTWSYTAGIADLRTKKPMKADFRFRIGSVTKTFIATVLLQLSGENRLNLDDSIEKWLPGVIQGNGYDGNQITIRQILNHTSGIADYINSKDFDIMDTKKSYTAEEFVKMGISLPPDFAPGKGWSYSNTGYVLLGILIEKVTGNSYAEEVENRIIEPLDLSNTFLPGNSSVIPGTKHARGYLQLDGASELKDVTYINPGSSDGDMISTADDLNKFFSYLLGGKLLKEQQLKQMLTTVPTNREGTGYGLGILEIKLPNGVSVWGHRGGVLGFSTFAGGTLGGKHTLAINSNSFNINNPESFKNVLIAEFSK
Protocol: as §1, §2, §3, §4

Point of comparison: `OCCS` [β-ME, ß-mercaptoethanol], “concentration of additive at which 10% of the relative specific activity is still present” value 0.50 M. Against it:
- N=C(N)N [GdmCl, guanidinium hydrochloride] — the same, 0.50 M
- NC(N)=O [urea] — 4-fold higher, 2.00 M

molecular target: T4, D-stereospecific hydrolytic enzyme, SEQ ID No. 7 (Bacillus thuringiensis, UniProt A0A1W6WPK6); test: as above; format: biochemical; settings: role: inhibitor (additive); substrate Abz-AAfFAAK(DNP)-OH
T4 construct: E. coli, purified
T4 sequence (A0A1W6WPK6 41-389): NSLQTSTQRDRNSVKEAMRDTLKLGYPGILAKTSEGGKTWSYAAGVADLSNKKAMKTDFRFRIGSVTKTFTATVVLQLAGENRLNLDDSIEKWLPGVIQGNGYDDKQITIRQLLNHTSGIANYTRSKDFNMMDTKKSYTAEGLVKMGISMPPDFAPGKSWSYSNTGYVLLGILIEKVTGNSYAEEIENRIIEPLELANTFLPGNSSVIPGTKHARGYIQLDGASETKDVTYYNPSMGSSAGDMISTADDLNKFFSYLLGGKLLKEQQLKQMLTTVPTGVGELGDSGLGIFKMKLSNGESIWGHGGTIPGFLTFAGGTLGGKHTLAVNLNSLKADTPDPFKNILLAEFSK
Protocol: as §1, §2, §3, §4

Point of comparison: `NC(N)=O` [urea], “concentration of additive at which 10% of the relative specific activity is still present” value 1.50 M. Against it:
- N=C(N)N [GdmCl, guanidinium hydrochloride] — 3-fold lower, 0.50 M
- OCCS [β-ME, ß-mercaptoethanol] — 3-fold lower, 0.50 M

molecular target: T5, D-stereospecific hydrolytic enzyme, SEQ ID No. 8 (Bacillus thuringiensis, UniProt A0A1W6WYC6); test: as above; format: biochemical; settings: role: inhibitor (additive); substrate Abz-AAfFAAK(DNP)-OH
T5 construct: E. coli, purified
T5 sequence (A0A1W6WYC6 40-389): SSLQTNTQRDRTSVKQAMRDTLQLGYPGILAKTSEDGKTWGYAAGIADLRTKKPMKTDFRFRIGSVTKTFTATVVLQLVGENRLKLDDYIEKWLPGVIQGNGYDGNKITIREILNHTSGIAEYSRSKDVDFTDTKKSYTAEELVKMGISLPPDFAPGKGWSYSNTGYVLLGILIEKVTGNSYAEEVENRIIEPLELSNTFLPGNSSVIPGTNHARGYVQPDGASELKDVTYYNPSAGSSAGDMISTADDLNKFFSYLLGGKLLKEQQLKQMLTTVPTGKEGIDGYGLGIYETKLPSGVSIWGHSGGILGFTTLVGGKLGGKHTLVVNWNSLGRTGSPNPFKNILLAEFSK
Protocol: as §1, §2, §3, §4

Point of comparison: `N=C(N)N` [GdmCl, guanidinium hydrochloride], “concentration of additive at which 10% of the relative specific activity is still present” value 1.00 M. Against it:
- NC(N)=O [urea] — 2-fold higher, 2.00 M
- OCCS [β-ME, ß-mercaptoethanol] — 2-fold lower, 0.50 M
